These compounds were tested against T1, EHMT2 (Homo sapiens, UniProt Q96KQ7) (assay: MDA-MB-231 H3K9me2 in-cell Western assay (EHMT2 ICW)). Conditions: Table II; MDA-MB-231 H3K9me2 in-cell Western; read-out: EHMT2 ICW (IC50 μM).
T1 construct: host or cells: MDA-MB-231
T1 sequence (Q96KQ7 1-1210): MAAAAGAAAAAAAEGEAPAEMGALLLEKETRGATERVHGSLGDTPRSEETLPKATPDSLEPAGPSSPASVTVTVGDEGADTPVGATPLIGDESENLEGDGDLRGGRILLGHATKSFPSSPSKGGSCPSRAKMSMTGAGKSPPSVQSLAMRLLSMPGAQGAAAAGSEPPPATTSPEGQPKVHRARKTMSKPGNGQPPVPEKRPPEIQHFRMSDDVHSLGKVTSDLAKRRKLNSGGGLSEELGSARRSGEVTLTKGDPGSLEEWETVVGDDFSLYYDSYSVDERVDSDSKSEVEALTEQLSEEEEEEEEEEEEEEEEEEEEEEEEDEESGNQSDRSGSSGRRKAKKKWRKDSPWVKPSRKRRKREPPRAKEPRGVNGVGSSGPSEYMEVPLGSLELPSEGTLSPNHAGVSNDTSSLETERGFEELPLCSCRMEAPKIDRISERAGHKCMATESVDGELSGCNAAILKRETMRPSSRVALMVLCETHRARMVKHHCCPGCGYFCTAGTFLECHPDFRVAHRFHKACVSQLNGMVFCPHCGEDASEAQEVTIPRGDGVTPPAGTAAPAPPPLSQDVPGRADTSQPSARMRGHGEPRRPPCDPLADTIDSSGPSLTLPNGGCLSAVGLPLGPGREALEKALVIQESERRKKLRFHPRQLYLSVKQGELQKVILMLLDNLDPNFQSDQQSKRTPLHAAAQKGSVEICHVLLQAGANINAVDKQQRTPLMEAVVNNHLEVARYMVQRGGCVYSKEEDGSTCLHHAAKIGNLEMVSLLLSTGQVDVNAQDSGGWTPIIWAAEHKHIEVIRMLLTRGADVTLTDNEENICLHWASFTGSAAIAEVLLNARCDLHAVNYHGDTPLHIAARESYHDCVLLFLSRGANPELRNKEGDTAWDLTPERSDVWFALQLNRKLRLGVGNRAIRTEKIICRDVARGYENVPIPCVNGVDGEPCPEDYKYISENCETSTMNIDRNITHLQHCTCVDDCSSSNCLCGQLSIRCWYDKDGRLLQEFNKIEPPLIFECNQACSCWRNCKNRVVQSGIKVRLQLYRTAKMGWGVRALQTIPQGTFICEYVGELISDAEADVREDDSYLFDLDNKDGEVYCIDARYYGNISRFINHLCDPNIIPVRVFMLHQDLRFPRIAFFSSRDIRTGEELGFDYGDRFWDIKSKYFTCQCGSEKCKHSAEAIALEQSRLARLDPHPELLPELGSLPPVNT
Assay type: cell-based
Method in brief: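 For 48 h at 37 °C, breast cancer MDA-MB-231 cells were incubated with compound, then fixed and immunostained for H3K9me2, with DRAQ5 used for normalisation. Each well's signal ratio yielded percent inhibition, and IC50 values were derived by fitting a four-parameter curve.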

Compared with `COc1ccc(Nc2nccc(NCC3CCNCC3)n2)cc1OCCCN1CCOCC1` [Compound 16, N^2-(4-methoxy-3-(3-morpholinopropoxy)phenyl)-N^4-(piperidin-4-ylmethyl)pyrimidine-2,4-diamine], `COc1ccc(Nc2nccc(NCC3CCCC3)n2)cc1OCCCN1CCCC1` [Compound 34] is lower in IC50: > 10 µM for the first, 0.1 to 1 µM for the second. The second is the more potent here.

First: COc1ccc(Nc2nccc(NCC3CCNCC3)n2)cc1CCNCC1CCCC1 [Compound 17, N^2-(3-(2-((cyclopentylmethyl)amino)ethyl)-4-methoxyphenyl)-N^4-(piperidin-4-ylmethyl)pyrimidine-2,4-diamine]
Second: COc1ccc(Nc2nccc(NCC3CCN(C(C)=O)CC3)n2)cc1COCCN1CCCC1 [Compound 48]
The IC50 of the first is higher: > 10 µM for the first, 1 to 10 µM for the second. The second is the more potent here.

`COc1ccc(Nc2nccc(NCC3CCN(C(C)=O)CC3)n2)cc1OCC1CCN(C)C1` (stereo not drawn) [Compound 18, 1-(4-(((2-((4-methoxy-3-((1-methylpyrrolidin-3-yl)methoxy)phenyl)amino)pyrimidin-4-yl)amino)methyl)piperidin-1-yl)ethan-1-one] and `COc1ccc(Nc2nccc(NCC3CCN(C(C)=O)CC3)n2)cc1OCCCN1CCCC1` [Compound 47, 1-(4-(((2-((4-methoxy-3-(3-(pyrrolidin-1-yl)propoxy)phenyl)amino)pyrimidin-4-yl)amino)methyl)piperidin-1-yl)ethan-1-one] fall in the same range of IC50: 1 to 10 µM for the first, 1 to 10 µM for the second.

First: COc1ccc(Nc2nc(C)cc(NCC3CCN(C(C)=O)CC3)n2)cc1OCCCN1CCCC1 [Compound 19, 1-(4-(((2-((4-methoxy-3-(3-(pyrrolidin-1-yl)propoxy)phenyl)amino)-6-methylpyrimidin-4-yl)amino)methyl)piperidin-1-yl)ethan-1-one]
Second: COc1ccc(Nc2ccnc(NCC3CCN(C(C)=O)CC3)n2)cc1OCCCN1CCCC1 [Compound 216]
The IC50 of the first is lower: 0.1 to 1 µM for the first, > 10 µM for the second.

Compared with `COc1ccc(Nc2nccc(NC(C)C)n2)cc1OCCCN1CCCC1` [Compound 20], `COc1ccc(Nc2nccc(NCC(C)(C)O)n2)cc1OCCCN1CCCC1` [Compound 42] is higher in IC50: 0.1 to 1 µM for the first, 1 to 10 µM for the second.

`COc1ccc(Nc2nccc(NCc3ccccc3)n2)cc1OCCCN1CCCC1` [Compound 21] and `COc1ccc(Nc2nccc(NCc3ccncc3)n2)cc1OCCCN1CCCC1` [Compound 24] fall in the same range of IC50: 0.1 to 1 µM for the first, 0.1 to 1 µM for the second.

`COCCCNc1ccnc(Nc2ccc(OC)c(OCCCN3CCCC3)c2)n1` [Compound 22] and `COCCNc1ccnc(Nc2ccc(OC)c(OCCCN3CCCC3)c2)n1` [Compound 27] fall in the same range of IC50: 0.1 to 1 µM for the first, 0.1 to 1 µM for the second.

`COc1ccc(Nc2nccc(NCc3ccccn3)n2)cc1OCCCN1CCCC1` [Compound 23] and `COc1ccc(Nc2nccc(NCc3cccnc3)n2)cc1OCCCN1CCCC1` [Compound 25] fall in the same range of IC50: 0.1 to 1 µM for the first, 0.1 to 1 µM for the second.

`COc1cccc(CNc2ccnc(Nc3ccc(OC)c(OCCCN4CCCC4)c3)n2)c1` [Compound 26] and `COc1ccc(CNc2ccnc(Nc3ccc(OC)c(OCCCN4CCCC4)c3)n2)cc1` [Compound 28] fall in the same range of IC50: 0.1 to 1 µM for the first, 0.1 to 1 µM for the second.

`COc1ccc(Nc2nccc(NCC3CCN(C(C)C)CC3)n2)cc1OCCCN1CCCC1` [Compound 29] and `COc1ccc(Nc2nccc(NCC3CCN(C)CC3)n2)cc1OCCCN1CCCC1` [Compound 32] fall in the same range of IC50: 0.1 to 1 µM for the first, 0.1 to 1 µM for the second.

First: COc1ccc(Nc2nccc(NCc3cnn(C)c3)n2)cc1OCCCN1CCCC1 [Compound 30]
Second: COc1ccc(Nc2nccc(-c3cnn(C)c3)n2)cc1OCCCN1CCCC1 [Compound 224]
The IC50 of the first is lower: 0.1 to 1 µM for the first, > 10 µM for the second.

`COc1ccc(Nc2nccc(NCc3nc4ccccc4[nH]3)n2)cc1OCCCN1CCCC1` [Compound 31] and `COc1ccccc1CNc1ccnc(Nc2ccc(OC)c(OCCCN3CCCC3)c2)n1` [Compound 36] fall in the same range of IC50: 0.1 to 1 µM for the first, 0.1 to 1 µM for the second.

Compared with `COc1ccc(Nc2nccc(NCC3CCN(c4ccccc4)CC3)n2)cc1OCCCN1CCCC1` [Compound 33], `COc1ccc(Nc2nccc(NCCOc3ccccc3)n2)cc1OCCCN1CCCC1` [Compound 40] is higher in IC50: 0.1 to 1 µM for the first, 1 to 10 µM for the second. The first is the more potent here.

First: COc1ccc(Nc2cccc(NC3CCC3)n2)cc1OCCCN1CCCC1 [Compound 35]
Second: COc1ccc(Nc2nccc(NC3CCCCC3)n2)cc1OCCCN1CCCC1 [Compound 50]
The IC50 of the first is lower: 0.1 to 1 µM for the first, 1 to 10 µM for the second. The first is the more potent here.

`COc1ccc(Nc2nccc(NCCc3cccnc3)n2)cc1OCCCN1CCCC1` [Compound 37] and `COc1ccc(Nc2nccc(NCCc3ccncc3)n2)cc1OCCCN1CCCC1` [Compound 39] fall in the same range of IC50: 0.1 to 1 µM for the first, 0.1 to 1 µM for the second.

First: COc1ccc(Nc2nccc(NCCNC(C)=O)n2)cc1OCCCN1CCCC1 [Compound 38]
Second: CNC(=O)CNc1ccnc(Nc2ccc(OC)c(OCCCN3CCCC3)c2)n1 [Compound 41]
The IC50 of the first is lower: 0.1 to 1 µM for the first, 1 to 10 µM for the second. The first is the more potent here.

`COc1ccc(Nc2nccc(NCCS(=O)(=O)N(C)C)n2)cc1OCCCN1CCCC1` [Compound 43] and `COc1ccc(Nc2nccc(NCCCN(C)C(C)=O)n2)cc1OCCCN1CCCC1` [Compound 44] fall in the same range of IC50: 1 to 10 µM for the first, 1 to 10 µM for the second.

`COc1ccc(Nc2nccc(NCC3(O)CCCCC3)n2)cc1OCCCN1CCCC1` [Compound 45] and `COc1ccc(Nc2nccc(NCC3(O)CCOCC3)n2)cc1OCCCN1CCCC1` [Compound 49] fall in the same range of IC50: 1 to 10 µM for the first, 1 to 10 µM for the second.

`COc1ccc(Nc2nccc(NCc3cc[nH]n3)n2)cc1OCCCN1CCCC1` [Compound 46] and `COc1ccc(Nc2nccc(Nc3cccc(F)c3)n2)cc1OCCCN1CCCC1` [Compound 225] fall in the same range of IC50: 1 to 10 µM for the first, 1 to 10 µM for the second.

First: CNc1cc(C)nc(Nc2ccc(OC)c(OCCCN3CCCC3)c2)n1 [Compound 205, N^2-(4-methoxy-3-(3-(pyrrolidin-1-yl)propoxy)phenyl)-N^4,6-dimethylpyrimidine-2,4-diamine]
Second: CNc1nc(C)cc(Nc2ccc(OC)c(OCCCN3CCCC3)c2)n1 [Compound 208]
The IC50 of the first is lower: < 0.1 µM for the first, 1 to 10 µM for the second. The first is the more potent here.

First: CNc1cc(Nc2ccc(OC)c(OCCCN3CCCC3)c2)ccn1 [Compound 206]
Second: CNc1ccnc(Nc2ccc(OC)c(OCCCN3CCCC3)c2)c1 [Compound 209, N^2-(4-methoxy-3-(3-(pyrrolidin-1-yl)propoxy)phenyl)-N^4-methylpyridine-2,4-diamine]
The IC50 of the first is higher: > 10 µM for the first, 1 to 10 µM for the second. The second is the more potent here.

`CNc1ccnc(Nc2cccc(OCCCN3CCCC3)c2)n1` [Compound 207, N^4-methyl-N^2-(3-(3-(pyrrolidin-1-yl)propoxy)phenyl)pyrimidine-2,4-diamine] and `CNc1ccnc(Nc2ccc(OC)c(OCCCN3CCOCC3)c2)n1` [Compound 210] fall in the same range of IC50: 1 to 10 µM for the first, 1 to 10 µM for the second.

`COc1ccc(Nc2nccc(-n3nc(C)cc3C)n2)cc1OCCCN1CCCC1` [Compound 214] and `COc1ccc(Nc2ncc3ncn(C)c3n2)cc1OCCCN1CCCC1` [Compound 219] cannot be ordered by IC50: > 10 µM for the first, > 10 µM for the second.

`CNCc1cnc(Nc2ccc(OC)c(OCCCN3CCCC3)c2)nc1` [Compound 215] and `COc1ccc(Nc2ccc3ncc(C)n3n2)cc1OCCCN1CCCC1` [Compound 223] cannot be ordered by IC50: > 10 µM for the first, > 10 µM for the second.

`COc1ccc(Nc2ccc3cnn(C)c3c2)cc1OCCCN1CCCC1` [Compound 217] and `COc1ccc(Nc2ccc3nn(C)cc3c2)cc1OCCCN1CCCC1` [Compound 221] cannot be ordered by IC50: > 10 µM for the first, > 10 µM for the second.

`COc1ccc(Nc2ccc3ncn(C)c3n2)cc1OCCCN1CCCC1` [Compound 218] and `COc1ccc(Nc2cccc3cn(C)nc23)cc1OCCCN1CCCC1` [Compound 222] cannot be ordered by IC50: > 10 µM for the first, > 10 µM for the second.

First: COc1ccc(Nc2cccc3ncnn23)cc1OCCCN1CCCC1 [Compound 220]
Second: COc1ccc(Nc2nccc(NCC3CCOCC3)n2)cc1NCCCN1CCCC1 [Compound 226]
The IC50 of the first is higher: > 10 µM for the first, 1 to 10 µM for the second. The second is the more potent here.

— patent US20210198277A1, “AMINE-SUBSTITUTED ARYL OR HETEROARYL COMPOUNDS” (Epizyme, Inc., priority 2016, published 2021)
